Laboratory results: paper doi:10.1101/2021.11.30.469594v1 (biorxiv, 2021)
Read-outs that look alike come from different tables or passages of the source.

Target: PRPK/TPRKB complex (also PRPK/PRPKB; PRPK aka TP53RK) (Homo sapiens, UniProt Q96S44)
Test: ITC
Assay type: binding

PRPK/TPRKB complex (also PRPK/PRPKB; PRPK aka TP53RK), sequence (Q96S44 whole entry, other chains not shown): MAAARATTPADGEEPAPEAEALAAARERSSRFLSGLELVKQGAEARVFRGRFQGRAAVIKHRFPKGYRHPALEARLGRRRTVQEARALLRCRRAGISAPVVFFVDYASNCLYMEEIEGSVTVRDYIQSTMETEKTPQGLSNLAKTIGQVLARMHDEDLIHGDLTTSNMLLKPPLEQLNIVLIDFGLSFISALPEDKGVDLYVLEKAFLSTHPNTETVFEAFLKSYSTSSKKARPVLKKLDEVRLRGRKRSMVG

SMILES: Nc1ccc2c(c1)C(=O)N(C1CCC(=O)NC1=O)C2=O (centres unmarked) [Compound2, 5-amino-2-(2,6-dioxopiperidin-3-yl)isoindoline-1,3-dione]
- Kd: 6.1 ± 0.5 µM

SMILES: C[C@@]1(N2C(=O)c3cccc(O)c3C2=O)CCC(=O)NC1=O [DB-A5, (R)-4-hydroxy-2-(3-methyl-2,6-dioxopiperidin-3-yl)isoindoline-1,3-dione]
- Kd (pH […] °C, […] DMSO, crystal structure solved here, ATP site): 1.8 ± 0.4 µM

SMILES: COc1cccc2c1C(=O)N([C@]1(C)CCC(=O)NC1=O)C2=O [DB-A5-OMe, (R)-4-methoxy-2-(3-methyl-2,6-dioxopiperidin-3-yl)isoindoline-1,3-dione]
- Kd: > 1000 µM

SMILES: C[C@]1(N2C(=O)c3cccc(O)c3C2=O)CCC(=O)NC1=O [DB-B5, (S)-4-hydroxy-2-(3-methyl-2,6-dioxopiperidin-3-yl)isoindoline-1,3-dione]
- Kd (pH […] °C, […] DMSO): 27 µM

SMILES: O=C1CCC(N2C(=O)c3cccc(O)c3C2=O)C(=O)N1 (centres unmarked) [TXM-01-027-1, 2-(2,6-dioxopiperidin-3-yl)-4-hydroxyisoindoline-1,3-dione]
- Kd: 2.2 µM
